Reference: US7250258B2 (priority 2003, dated 2007)

What was measured:
AD patients [1] = conditions: galantamine therapy; cited from earlier work
[2] = test system: Caucasian patients diagnosed with Alzheimer's Disease; assay: Clinical association of CDK5 haplotype copy number with galantamine response (ΔADAS-cog responder vs non-responder, logistic regression); assay type: in vivo, human
Experimental: Following 3, 5, 6 or 12 months of treatment in the GAL-INT2, GAL-USA 10, GAL-INT-1 and SAB-USA-25 trials, respectively, the severity of symptoms in patients were evaluated using the cognitive subscale of the Alzheimer's Disease Assessment Scale (ADAS-cog) (Rosen et al., supra; Rockwood et al., supra; Tariot et al., supra; Wilcock et al., supra). The ADAS-cog measures cognitive function, including spoken language ability, comprehension of spoken language, recall of test instructions, word-finding difficulty in spontaneous speech, following commands, naming objects and fingers, constructional praxis, ideational praxis, orientation, word-recall task and word-recognition task (Alzheimer's Insights Online, supra).
For the clinical association study described in Example 2 below, 174 patients were selected and used to populate two groups in a tailed sampling strategy, intended to enrich alleles correlating with drug response in the population. […] Patients were assigned to responder and non-responder groups based on having a change in ADAS-cog score (ΔADAS-cog) that met a cut-off value that was chosen based on the differences in treatment times in the four clinical trials described above. The ΔADAS-cog cut-off values and treatment times used for each responder and non-responder group from each of the four clinical trials are shown in Table 6 below.
The statistical analyses compared ΔADAS-cog in patients with one copy vs. zero copies, two copies vs. zero copies, and two copies vs. one copy (within a patient's genome) of a particular allele, using a logistic regression analysis on two-degrees of freedom to associate clinical response with a particular haplotype. The following covariates were also included: age, gender, history, smoking, ADAS-cog baseline, dose (BID), body mass index, and CYP2D6. The logistic regression included assessment of associations between the haplotypes and the binary outcome of clinical response.
For the results obtained on the analyses, adjustments were made for multiple comparisons, using a permutation test (MULTIVARIATE PERMUTATION TESTS: WITH APPLICATIONS IN BIOSTATISTICS, Pesarin, John Wiley and Sons, New York, 2001). In this test, a sub-haplotype's data for each observation were kept constant, while all the remaining variables (outcome and covariates) were randomly permuted so that covariates always stayed with the same outcome. The permutation model was fitted for each of the several haplotypes, and the lowest p-value was kept. In total, 1000 permutations were done.

AD patients [3] = conditions: presence of the ApoE4 allele; cited from earlier work

| Compound | most common side effects (AD patients [1]) | Subject Count for Haplotype with Highest Level Response ([2]; haplotype (1), 0 copies, of 41 subjects) | Subject Count for Haplotype with Highest Level Response ([2]; haplotype (1), 1 copy, of 88 subjects) | Subject Count for Haplotype with Highest Level Response ([2]; haplotype (1), 2 copies, of 45 subjects) | Subject Count for Haplotype with Highest Level Response ([2]; haplotype (2), 0 copies, of 41 subjects) | Subject Count for Haplotype with Highest Level Response ([2]; haplotype (2), 1 copy, of 88 subjects) | Subject Count for Haplotype with Highest Level Response ([2]; haplotype (2), 2 copies, of 45 subjects) | response to treatment in presence of ApoE4 polymorphism (AD patients [3]) |
| --- | --- | --- | --- | --- | --- | --- | --- | --- |
| COc1ccc2c3c1O[C@H]1C[C@@H](O)C=C[C@@]31CCN(C)C2 [galantamine] | nausea, vomiting, diarrhea, dizziness and anorexia | 26 (0) | 46 (1) | 13 (2) | 26 (0) | 46 (1) | 13 (2) | – |
| Nc1c2c(nc3ccccc13)CCCC2 [tacrine] | – | – | – | – | – | – | – | reduced response to treatment |
